Results reported in ChEMBL document CHEMBL3351486 (Bioorg Med Chem Lett, 2014).
Calls of active or inactive are those of the source. The calls are words filed in the database; no cut-off is given here.

Experiments:
[1] = Cytotoxicity against BL2 cells (unknown origin) assessed as cell killing after 24 hrs by MTT assay; format: functional, cell-based; details: BL2, 24 h
[2] = Cytotoxicity against BL2/B95 cells (unknown origin) assessed as cell killing after 24 hrs by MTT assay; format: functional, cell-based; details: BL2/B95, 24 h
[3] = Cytotoxicity against Remb1 cells (unknown origin) assessed as cell killing after 24 hrs by MTT assay; format: functional, cell-based; details: Remb1, 24 h
[4] = target: Bcl-xL/BAK (Homo sapiens, UniProt Q07817); experiment: Inhibition of Bcl-xL/Bak (unknown origin) interaction; format: protein assay
Bcl-xL/BAK, sequence (Q07817 whole entry, the tested form may be a part): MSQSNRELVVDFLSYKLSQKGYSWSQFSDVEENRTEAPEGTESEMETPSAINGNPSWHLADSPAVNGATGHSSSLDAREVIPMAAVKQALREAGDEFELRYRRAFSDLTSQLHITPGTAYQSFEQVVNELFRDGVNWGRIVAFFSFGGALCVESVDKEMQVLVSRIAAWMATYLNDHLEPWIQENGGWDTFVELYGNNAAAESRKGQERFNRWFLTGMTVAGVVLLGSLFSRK
Bcl-xL/BAK, sequence (Q16611 whole entry, further chain, the tested form may be a part): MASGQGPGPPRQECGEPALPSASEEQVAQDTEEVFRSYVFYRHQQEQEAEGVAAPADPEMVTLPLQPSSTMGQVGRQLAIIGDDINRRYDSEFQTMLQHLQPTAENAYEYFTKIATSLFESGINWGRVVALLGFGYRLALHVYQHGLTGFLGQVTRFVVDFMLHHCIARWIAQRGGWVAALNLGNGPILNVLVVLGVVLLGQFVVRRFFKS

[5] = target: Induced myeloid leukemia cell differentiation protein Mcl-1/BH3-interacting domain death agonist (Homo sapiens, UniProt Q07820); experiment: Inhibition of Mcl1/Bid (unknown origin) interaction; format: protein assay
Induced myeloid leukemia cell differentiation protein Mcl-1/BH3-interacting domain death agonist, sequence (Q07820 whole entry, the tested form may be a part): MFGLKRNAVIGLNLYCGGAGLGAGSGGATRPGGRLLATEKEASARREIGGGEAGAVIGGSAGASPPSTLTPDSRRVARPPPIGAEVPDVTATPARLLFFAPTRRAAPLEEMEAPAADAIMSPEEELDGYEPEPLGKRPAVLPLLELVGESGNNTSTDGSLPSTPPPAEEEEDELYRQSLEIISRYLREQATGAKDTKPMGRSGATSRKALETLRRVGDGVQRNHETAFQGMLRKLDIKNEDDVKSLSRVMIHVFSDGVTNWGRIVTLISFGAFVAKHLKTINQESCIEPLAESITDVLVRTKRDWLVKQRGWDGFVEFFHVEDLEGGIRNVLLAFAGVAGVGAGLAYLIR
Induced myeloid leukemia cell differentiation protein Mcl-1/BH3-interacting domain death agonist, sequence (P55957 whole entry, further chain, the tested form may be a part): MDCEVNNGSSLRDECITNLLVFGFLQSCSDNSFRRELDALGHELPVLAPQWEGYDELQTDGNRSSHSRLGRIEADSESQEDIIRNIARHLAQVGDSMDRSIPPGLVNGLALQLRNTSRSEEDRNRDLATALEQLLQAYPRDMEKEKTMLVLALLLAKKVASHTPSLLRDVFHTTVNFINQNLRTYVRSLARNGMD

[6] = Cytotoxicity against BL2 cells (unknown origin) assessed as cell killing at 10 uM after 24 hrs by MTT assay; format: functional
[7] = Cytotoxicity against BL2/B95 cells (unknown origin) assessed as cell killing at 10 uM after 24 hrs by MTT assay; format: functional
[8] = Cytotoxicity against Remb1 cells (unknown origin) assessed as cell killing at 10 uM after 24 hrs by MTT assay; format: functional
[9] = Induction of apoptosis in BL2 cells (unknown origin) at 7.5 uM after 24 hrs by Annexin V/propidium iodide staining-based flow cytometric analysis; format: functional
[10] = Induction of apoptosis in BL2/B95 cells (unknown origin) at 7.5 uM after 24 hrs by Annexin V/propidium iodide staining-based flow cytometric analysis; format: functional
[11] = Induction of apoptosis in Remb1 cells (unknown origin) at 7.5 uM after 24 hrs by Annexin V/propidium iodide staining-based flow cytometric analysis; format: functional
[12] = tested on: BL2; experiment: Induction of apoptosis in BL2 cells (unknown origin) assessed as PARP cleavage at 7.5 uM after 24 hrs by Western blot analysis; format: functional, cell-based
[13] = tested on: BL2/B95; experiment: Induction of apoptosis in BL2/B95 cells (unknown origin) assessed as PARP cleavage at 7.5 uM after 24 hrs by Western blot analysis; format: functional, cell-based
[14] = tested on: Remb1; experiment: Induction of apoptosis in Remb1 cells (unknown origin) assessed as PARP cleavage at 7.5 uM after 24 hrs by Western blot analysis; format: functional, cell-based

| Structure (SMILES) | IC50 [1] [µM] | IC50 [2] [µM] | IC50 [3] [µM] | Ki [4] [µM] | Ki [5] [µM] | Activity [6] [%] | Activity [7] [%] | Activity [8] [%] | Activity [9] [%] | Activity [10] [%] | Activity [11] [%] | Activity [12] | Activity [13] | Activity [14] |
| --- | --- | --- | --- | --- | --- | --- | --- | --- | --- | --- | --- | --- | --- | --- |
| CC(C)=CCC[C@@H](C)[C@H]1C=C[C@@]2(C(=O)O)[C@H](CC(C)=C[C@@H]2/C=C(\C)[C@H]2CC[C@H](C(=O)O)CC2)C1 | > 20 | > 20 | > 20 |  |  |  |  |  |  |  |  |  |  |  |
| CC(C)=CCC[C@@H](C)[C@@H]1C=C[C@]2(C(=O)O)[C@@H](CC(C)=C[C@H]2/C=C(\C)[C@H]2CC[C@H](C(=O)O)CC2)C1 | > 20 | > 20 | > 20 |  |  |  |  |  |  |  |  |  |  |  |
| CC(C)=CCC[C@@H](C)[C@@H]1C=C[C@]2(C(=O)O)[C@@H](CC(C)=C[C@H]2/C=C(\C)c2ccc(C(=O)O)cc2)C1 | 8.5 | 8.6 | 8.6 | 4.6 | 9.1 | >50 | >50 | >50 | 71 | 52 | 54 | Active | Active | Active |
| CC(C)=CCC[C@H](C)[C@@H]1C=C[C@]2(C(=O)O)[C@@H](CC(C)=C[C@H]2/C=C(\C)c2ccc(C(=O)O)cc2)C1 | > 20 | > 20 | > 20 | 7.5 | 15.9 |  |  |  |  |  |  |  |  |  |
| CC(C)=CCC[C@H](C)[C@H]1C=C[C@@]2(C(=O)O)[C@H](CC(C)=C[C@@H]2/C=C(\C)[C@H]2CC[C@H](C(=O)O)CC2)C1 | > 20 | > 20 | > 20 |  |  |  |  |  |  |  |  |  |  |  |
